From patent publication US5013542A, “Method to inhibit adhesion of disease-causing microorganisms to teeth” (Forsyth Dental Infirmary for Children, priority 1988, dated 1991)
Where no end group is shown, it is not given here.

How the values were obtained:
Experiment in all cases: Adhesion of radioactively labeled bacteria to treated hydroxyapatite (HA)
Type in all cases: cell-based
Streptococcus mutans = system: Streptococcus mutans
Description: (§1) PRP-1 and PRP-1(Tl) were investigated for their abilities to promote adhesion of bacteria to HA. Essentially, the method is to treat HA samples with nothing (negative control), saliva (positive control), or the respective proteins or peptides. The excess agent is removed by washing, and suspensions of radioactively labeled bacteria are added to the treated HA. After a suitable time, the excess bacteria are removed by washing and those remaining adsorbed to the HA are counted in a scintillation counter. In the table of results, bacterial adsorption to saliva-treated HA is considered to be 100%, and adsorption to PRP-1 or PRP-1(Tl)-treated HA expressed as a percentage of this reference value. This approach is necessary because of the diverse behaviors of different bacteria.

Bacteroides gingivalis = system: Bacteroides gingivalis
Description: as §1

Actinomyces viscosus = system: Actinomyces viscosus
Description: as §1

Streptococcus mitis = system: Streptococcus mitis
Description: as §1

Streptococcus sanguis = system: Streptococcus sanguis
Description: as §1

[1] = HA treated with the protein/peptide, saliva-treated HA = 100%

## PRP-1(T1): residues 1-30, highly acidic phosphoserine-containing amino-terminal segment of PRP-1 obtained by tryptic digestion at ARG(30) (QDLDEDVSQEDVPLVISDGGDSEQFIDEER; also: phosphoserine-containing, positions not given here; UniProt P02810 17-46, looked up, fragment)
Streptococcus mutans; [1]
  PERCENT ADHESION COMPARED TO SALIVA-TREATED HA: 17%
Streptococcus mutans; versus saliva-treated HA
  adhesion of organism to treated HA (in words): significantly and profoundly depressed
Bacteroides gingivalis; B. gingivalis, versus saliva-treated HA
  adhesion of organism to treated HA (in words): significantly and profoundly depressed
Bacteroides gingivalis; Bacteroides gingivalis, HA treated with the protein/peptide, saliva-treated HA = 100%
  PERCENT ADHESION COMPARED TO SALIVA-TREATED HA: 20%
Actinomyces viscosus; [1]
  PERCENT ADHESION COMPARED TO SALIVA-TREATED HA: 17%
Actinomyces viscosus; versus saliva-treated HA
  adhesion of organism to treated HA (in words): significantly and profoundly depressed
Streptococcus mitis; [1]
  PERCENT ADHESION COMPARED TO SALIVA-TREATED HA: 26%
Streptococcus mitis; versus saliva-treated HA
  adhesion of organism to treated HA (in words): significantly and profoundly depressed
Streptococcus sanguis; S. sanguis, versus saliva-treated HA
  adhesion of organism to treated HA (in words): significantly and profoundly depressed
Streptococcus sanguis; Streptococcus sanguis, HA treated with the protein/peptide, saliva-treated HA = 100%
  PERCENT ADHESION COMPARED TO SALIVA-TREATED HA: 4%
